Experimental data published in patent US8440638B2, “Compositions and methods for modulating calcium flux, glucose homeostasis and apoptosis” (Wisconsin Alumni Research Foundation, priority 2004, dated 2013).

Columns and labels:
HEK-293 cells = assay: Cell viability assay (calcein fluorescence), parental HEK-293 cells; assay type: cell-based; conditions: parental HEK-293, 5-50 μM, 16 h
Description: Shown are HEK-293 cells (closed diamond) and HEK-293 cells stably transfected with a tet-controlled TRPM2 construct in the presence (open squares) or absence of (open diamonds) tetracycline. Cells incubated in the presence of 0-50 μM puromycin for 16 h were assayed for viability by measuring fluorescence of calcein in live cells. b.) Removal of calcium rescues cells from puromycin induced cell death. TRPM2-expressing HEK-293 cells were grown in complete DMEM media and 1 μg/ml tetracycline until 80-90% confluent. One set of cells were re-fed with the same complete media (closed diamonds) and the other set of cells were rinsed with PBS and fed with modified media containing 1 μg/ml tetracycline, 5 mM EGTA and without calcium chloride (open squares). […] HEK-293 (close diamond) and TRPM2 expressing HEK-293 cells in the absence (open diamond) or presence of (closed square) tetracycline were exposed to 0-10 μg/ml cycloheximide for 16 h. Cell viability was determined as described in (a).
HEK-293, tet-inducible HEK-293, and CRI-G1 cells were seeded into 6 well plates at a density of 500,000 cells per well. […] Calcein is retained in living, but not dead cells, where it undergoes catalytic conversion into a fluorescent compound Fluorescence in each well was measured in a microplate reader using excitation and emission filters at 485/530 nm, respectively.

CRI-G1 cells = assay: Cell viability assay (calcein fluorescence), CRI-G1 cells; assay type: cell-based, rat; conditions: 0-40 μM puromycin, 16 h
Description: FIG. 4 a) OAADPr gates the endogenous TRPM2 channel in CRI-G1 cells. Left panel: Evolution of currents in CRI-G1 cells in the absence (grey squares) or presence (black circles) of OAADPr (120-250 μM). Shown are average leak subtracted currents from n=3 cells for each condition. Right panel: Representative leak subtracted whole cell I/V curves for peak currents observed in the absence (grey line) and presence (black line) of OAADPr. For the above measurements, CRI-G1 cells were maintained in the whole cell patch clamp configuration as previously described for HEK-293 cells (44). b) Puromycin leads to cell death in CRI-G1 cells. CRI-G1 cells were treated with 0-40 μM puromycin for 16 h. Cell viability was assessed by measuring fluorescence of calcein in live cells. Data obtained from 4 independent experiments were plotted as a percent change in fluorescence compared to those of untreated cells set at a 100%. Error bars indicate the standard deviation from the mean. (Inset) Nicotinamide rescues puromycin-induced death in CRI-G1 cells. […] Cell viability was assessed 16 h later as described above. […] Calcein is retained in living, but not dead cells, where it undergoes catalytic conversion into a fluorescent compound Fluorescence in each well was measured in a microplate reader using excitation and emission filters at 485/530 nm, respectively.

## COc1ccc(C[C@H](N)C(=O)N[C@H]2[C@@H](O)[C@H](n3cnc4c(N(C)C)ncnc43)O[C@@H]2CO)cc1 [puromycin]
HEK-293 cells
  cell death following puromycin treatment: no significant cell death
CRI-G1 cells
  cell death of CRI-G1 cells: dose-dependent death
